According to paper PMC6550366, “High-Throughput Recovery and Characterization of Metagenome-Derived Glycoside Hydrolase-Containing Clones as a Resource for Biocatalyst Development” (mSystems, 2019):

Test system: T1, C11-GH1
T1 construct: gene C11_GH1; Full ORF in pET28 (NdeI/XhoI), E. coli BL21(DE3), Ni-NTA; text says C-terminal His tag but reverse primer carries a stop codon; Primer-derived: N-term (M)VAFSDKFL (native GTG start), C-term SRNGKNL, nucleophile region LPLIITENGMADND
Assay: fluorogenic hydrolysis, MU release
Type: biochemical
Conditions: 20 mM HEPES, 300 mM NaCl, pH 7.0, 37°C; read-out: Mean Km (mM) ± SD
Source text: fluorogenic hydrolysis, MU release on C11-GH1

Km [mM] | Structure (SMILES)
0.1 ± 0.02 | Cc1cc(=O)oc2cc(O[C@@H]3O[C@H](CN=[N+]=[N-])[C@H](O)[C@H](O)[C@H]3O)ccc12 [6-N3-Gal MU, 4-methylumbelliferyl 6-azido-6-deoxy-β-D-galactoside]
0.05 ± 0.01 | Cc1cc(=O)oc2cc(O[C@@H]3O[C@H](CN=[N+]=[N-])[C@@H](O)[C@H](O)[C@H]3O)ccc12 [6-N3-Glc MU]
0.05 ± 0.02 | Cc1cc(=O)oc2cc(O[C@@H]3O[C@H](CO)[C@H](O)[C@H](O)[C@H]3O)ccc12 [Gal MU]
0.2 ± 0.03 | Cc1cc(=O)oc2cc(O[C@@H]3O[C@H](CO)[C@@H](O)[C@H](O)[C@H]3O)ccc12 [Glc MU]
